According to US5972894A, “Peptides having potassium channel opener activity” (Cytran, Inc., priority 1997, dated 1999):
Residues, ends and D or L forms follow the SMILES beside them.

Test system: ischemic myocardium
Assay: Inotropic function and arrhythmias of ischemic isolated rat heart during reperfusion
Conditions: for Number of Ventricular Extrasystoles / Overall Duration of Ventricular Fibrillation / Overall Duration of Ventricular Tachycardia: 30-minute reperfusion
Description: Rat hearts were surgically isolated from white random-bred rats weighing approximately 250 g. The isolated hearts were perfused with a standard oxygenated (95% O2 and 5% CO2) Krebs-Henseleit solution in a retrograde manner (i.e., according to Langendorff and using a constant perfusate pressure of 80 cm of water). The hearts maintained a steady spontaneous contraction rate. A latex balloon catheter connected to a pressure transducer (EMT-746, Siemens-Elema, Sweden) was inserted into the left ventricle of each heart to measure the inotropic function of the heart (as described in Example 3, above). The left ventricle pressure variation curve was recorded using a polygraph.
Stage I ("adaptation regimen") consisted of a 30-minute adaptation of the respective rat hearts to the perfusion regimen. The baseline parameters for the inotropic function of each heart were recorded to establish the preischemic values for the following measured parameters: (i) the systolic pressure in the left ventricle (Psyst. mm Hg); (ii) the diastolic pressure in the left ventricle (Pdiast. mm Hg); (iii) the evolving pressure (Pev. =Psyst. -Pdist. mm Hg); (iv) the maximal rate of increase of left ventricle pressure (+dp/dtmax mm Hg/sec); and (v) the maximal rate of decrease of left ventricle pressure (-dp/dtmax mm Hg/sec). In addition, the heart rate (HR) of each heart was determined from the recordings made of the variations in the left ventricle pressure over time. In Stage II ("ischemic simulation"), ischemia was induced in each heart by shutting off the supply of the perfusion solution to the heart. Approximately 30 minutes later, Stage III ("reperfusion regimen") was initiated by restarting the reperfusion and including in the perfusate solution a test or control substance at one of the following respective concentrations: a perfusate solution of a test substance comprised 0.06, 0.6, or 6.0 mg/l GE, or 0.06, 0.6, or 6.0 mg/l VT, respectively; a perfusate solution of the positive control substance comprised 14 mg/l inosine. Inosine is a nucleoside preparation that produces a favorable inotropic effect on both normal and ischemic myocardium while inducing no rhythm disturbances or acceleration of ischemic contracture development. Woollard et al., Cardiovasc. Res. 15: 659-67 (1981). Inosine was obtained from Sigma Chemical Company, USA (Cat. Code I-4125; lot number 81H0227). The negative control substance comprised reperfusion using a standard oxygenated Krebs-Henseleit solution.
For each heart, the inotropic function of the myocardium was evaluated by measuring the parameters (i) through (v), discussed above, and the heart rate. These six parameters were recorded continuously throughout the study (i.e., beginning with Stage I and continuing through Stage III). The recordings were analyzed at the following times: (a) immediately before beginning Stage II (that is, after the 30-minute Stage I adaptation period, but before stopping perfusion); and (b) at 1, 5, 10, 20, and 30 minutes into the Stage III reperfusion.
The frequency and duration of rhythm disturbances in the 30-minute Stage III reperfusion period were determined by measuring the following parameters: (i) the number of ventricular extrasystoles; (ii) the overall duration of ventricular tachycardias (in seconds); and (iii) the overall duration of ventricular fibrillation (in seconds). Each dose of the test substance was tested on nine isolated hearts.

NCC(=O)N[C@@H](CCC(=O)O)C(=O)O [GE, L-Glycyl-L-Glutamic acid] (H-Gly-Glu-OH)
Number of Ventricular Extrasystoles (0.06 mg/l): 182.2
Overall Duration of Ventricular Fibrillation (0.06 mg/l): 0 s
Overall Duration of Ventricular Tachycardia (0.06 mg/l): 2.1 s
Diastolic Pressure in Ischemic Left Ventricle (% of Preischemic Mean Value) (0.06 mg/l, 1 min reperfusion): 95.96%
Evolving Pressure in Ischemic Left Ventricle (% of Preischemic Mean Value) (0.06 mg/l, 1 min reperfusion): 117.70%
Heart Rate during Reperfusion (% of Preischemic Mean Value) (0.06 mg/l, 1 min reperfusion): 69.09%
Maximal Rate of Increase of Left Ventricle Pressure (% of Preischemic Mean Value) (0.06 mg/l, 1 min reperfusion): 127.30%
Maximal Rate of Left Ventricle Pressure Decrease (% of Preischemic Mean Value) (0.06 mg/l, 1 min reperfusion): 86.91%
Systolic Pressure in Ischemic Left Ventricle (% of Preischemic Values) (0.06 mg/l, 1 min reperfusion): 115.11%
Diastolic Pressure in Ischemic Left Ventricle (% of Preischemic Mean Value) (0.06 mg/l, 5 min reperfusion): 124.53%
Evolving Pressure in Ischemic Left Ventricle (% of Preischemic Mean Value) (0.06 mg/l, 5 min reperfusion): 92.58%
Heart Rate during Reperfusion (% of Preischemic Mean Value) (0.06 mg/l, 5 min reperfusion): 91.94%
Maximal Rate of Increase of Left Ventricle Pressure (% of Preischemic Mean Value) (0.06 mg/l, 5 min reperfusion): 98.87%
Maximal Rate of Left Ventricle Pressure Decrease (% of Preischemic Mean Value) (0.06 mg/l, 5 min reperfusion): 89.27%
Systolic Pressure in Ischemic Left Ventricle (% of Preischemic Values) (0.06 mg/l, 5 min reperfusion): 98.86%
Diastolic Pressure in Ischemic Left Ventricle (% of Preischemic Mean Value) (0.06 mg/l, 10 min reperfusion): 128.57%
Evolving Pressure in Ischemic Left Ventricle (% of Preischemic Mean Value) (0.06 mg/l, 10 min reperfusion): 86.19%
Heart Rate during Reperfusion (% of Preischemic Mean Value) (0.06 mg/l, 10 min reperfusion): 93.44%
Maximal Rate of Increase of Left Ventricle Pressure (% of Preischemic Mean Value) (0.06 mg/l, 10 min reperfusion): 87.39%
Maximal Rate of Left Ventricle Pressure Decrease (% of Preischemic Mean Value) (0.06 mg/l, 10 min reperfusion): 82.04%
Systolic Pressure in Ischemic Left Ventricle (% of Preischemic Values) (0.06 mg/l, 10 min reperfusion): 89.79%
Diastolic Pressure in Ischemic Left Ventricle (% of Preischemic Mean Value) (0.06 mg/l, 20 min reperfusion): 134.92%
Evolving Pressure in Ischemic Left Ventricle (% of Preischemic Mean Value) (0.06 mg/l, 20 min reperfusion): 74.40%
Heart Rate during Reperfusion (% of Preischemic Mean Value) (0.06 mg/l, 20 min reperfusion): 72.87%
Maximal Rate of Increase of Left Ventricle Pressure (% of Preischemic Mean Value) (0.06 mg/l, 20 min reperfusion): 87.39%
Maximal Rate of Left Ventricle Pressure Decrease (% of Preischemic Mean Value) (0.06 mg/l, 20 min reperfusion): 75.11%
Systolic Pressure in Ischemic Left Ventricle (% of Preischemic Values) (0.06 mg/l, 20 min reperfusion): 84.10%
Diastolic Pressure in Ischemic Left Ventricle (% of Preischemic Mean Value) (0.06 mg/l, 30 min reperfusion): 91.20%
Evolving Pressure in Ischemic Left Ventricle (% of Preischemic Mean Value) (0.06 mg/l, 30 min reperfusion): 68.73%
Heart Rate during Reperfusion (% of Preischemic Mean Value) (0.06 mg/l, 30 min reperfusion): 68.67%
Maximal Rate of Increase of Left Ventricle Pressure (% of Preischemic Mean Value) (0.06 mg/l, 30 min reperfusion): 70.93%
Maximal Rate of Left Ventricle Pressure Decrease (% of Preischemic Mean Value) (0.06 mg/l, 30 min reperfusion): 66.02%
Systolic Pressure in Ischemic Left Ventricle (% of Preischemic Values) (0.06 mg/l, 30 min reperfusion): 72.11%
Number of Ventricular Extrasystoles (0.6 mg/l): 168.5
Overall Duration of Ventricular Fibrillation (0.6 mg/l): 44.3 s
Overall Duration of Ventricular Tachycardia (0.6 mg/l): 22.2 s
Diastolic Pressure in Ischemic Left Ventricle (% of Preischemic Mean Value) (0.6 mg/l, 1 min reperfusion): 69.70%
Evolving Pressure in Ischemic Left Ventricle (% of Preischemic Mean Value) (0.6 mg/l, 1 min reperfusion): 71.90%
Heart Rate during Reperfusion (% of Preischemic Mean Value) (0.6 mg/l, 1 min reperfusion): 52.28%
Maximal Rate of Increase of Left Ventricle Pressure (% of Preischemic Mean Value) (0.6 mg/l, 1 min reperfusion): 71.21%
Maximal Rate of Left Ventricle Pressure Decrease (% of Preischemic Mean Value) (0.6 mg/l, 1 min reperfusion): 53.56%
Systolic Pressure in Ischemic Left Ventricle (% of Preischemic Values) (0.6 mg/l, 1 min reperfusion): 74.01%
Diastolic Pressure in Ischemic Left Ventricle (% of Preischemic Mean Value) (0.6 mg/l, 5 min reperfusion): 113.42%
Evolving Pressure in Ischemic Left Ventricle (% of Preischemic Mean Value) (0.6 mg/l, 5 min reperfusion): 83.73%
Heart Rate during Reperfusion (% of Preischemic Mean Value) (0.6 mg/l, 5 min reperfusion): 85.30%
Maximal Rate of Increase of Left Ventricle Pressure (% of Preischemic Mean Value) (0.6 mg/l, 5 min reperfusion): 84.14%
Maximal Rate of Left Ventricle Pressure Decrease (% of Preischemic Mean Value) (0.6 mg/l, 5 min reperfusion): 79.56%
Systolic Pressure in Ischemic Left Ventricle (% of Preischemic Values) (0.6 mg/l, 5 min reperfusion): 90.02%
Diastolic Pressure in Ischemic Left Ventricle (% of Preischemic Mean Value) (0.6 mg/l, 10 min reperfusion): 95.24%
Evolving Pressure in Ischemic Left Ventricle (% of Preischemic Mean Value) (0.6 mg/l, 10 min reperfusion): 86.63%
Heart Rate during Reperfusion (% of Preischemic Mean Value) (0.6 mg/l, 10 min reperfusion): 77.07%
Maximal Rate of Increase of Left Ventricle Pressure (% of Preischemic Mean Value) (0.6 mg/l, 10 min reperfusion): 88.69%
Maximal Rate of Left Ventricle Pressure Decrease (% of Preischemic Mean Value) (0.6 mg/l, 10 min reperfusion): 87.20%
